Where two headings read alike, the source gives them in different places. Values belong to the compound of their own block, whether it stands above or below them.
Legend:
rat jejunum = test: In vitro macromolecule permeation of rat jejunum sections with/without electrical stimulation and L-NAME (FIG. 37); type: in vitro ADME
Method: Reference is now made to FIG. 37, which is a graph showing in vitro measurements of macromolecule permeation, measured in accordance with an embodiment of the present invention. Several sections of rat jejunum were prepared, and the permeation of the sections to Leuprolide and Octreotide peptides was measured with and without electrical stimulation, and with and without application of 1 mM N^G-Nitro-L-Arginine methyl ester (L-NAME), a non-specific nitric oxide (NO) synthase (NOS) inhibitor. The electrical stimulation included the following parameters: 18 Hz, 1 ms pulses, and 5 mA (corresponding to a voltage of about 2 V).

[1] = system: proabsorptive effect of NO; conditions: addition of NOS inhibitors; cited from earlier work
[2] = system: electrically-induced NO synthesis and release; conditions: NO synthase inhibitor added; cited from earlier work
rat intestine = conditions: all regions of the rat intestine; cited from earlier work
mouse ileum = conditions: addition of NO donors to mouse ileum; cited from earlier work
[3] = system: upper jejunum tissue segments; test: Octreotide permeation via rat upper jejunum tissue segment in diffusion chamber, with or without LITV pulses (FIG. 24); type: in vitro ADME, Wistar rat; conditions: LITV pulses 12 Hz, 1 millisecond, 3 mA vs control without stimulation; 1 mg/ml octreotide acetate, 90-minute period
Method: Reference is now made to FIG. 24, which is a graph showing in vitro experimental results measured in accordance with an embodiment of the present invention. A 300 g Wistar rat was anaesthetized using Ketamine (100 mg/kg) and Xylazine (10 mg/kg). Two 3 cm-long sections of the upper jejunum were removed and opened along the lumen so that two rectangular pieces of tissue were available. The serosal and muscular layers were removed using a microscope cover glass. The intestinal tissue segments were placed on slides and inserted into diffusion chambers similar to experimental diffusion chamber 500, described hereinbelow with reference to FIG. 26. […] The tissue segments on the slides completely covered the windows between the donor and acceptor cells. The cells were filled with 15 ml of Hank's Balanced Salt Solution (HBSS) (pH 7.4). The donor cells were then divided into two separate sections with a dividing board slightly touching the tissue so that fluid passage between the two parts of each donor cell was slow (if not impossible). […]
In one of the diffusion chambers (which served as a control), permeation of octreotide via the tissue segment was measured without the application of electrical stimulation. […] The samples were analyzed by HPLC-UV 205 nm spectroscopy (Hewlett-Packard 1100, acetonitril: phosphate buffer (pH 7.4) (40:60), C18 column) for their content of octreotide.

jejunal tissue = test: Octreotide permeation via jejunal tissue in diffusion chamber 500 with LITV pulses (FIGS. 27-36); type: in vitro ADME, Wistar rat; conditions: for permeation efficiency, effect of pulse cycle: 1 millisecond (FIG. 31); for octreotide permeation vs control group: 3 mA (FIG. 29); for permeation efficiency, effect of electrode material: 1 millisecond (FIG. 34)
Method: (§1) Reference is now made to FIG. 26, which is a schematic cross-sectional illustration of an experimental diffusion chamber 500, and FIGS. 27-36, which are graphs showing in vitro experimental results generated in accordance with respective embodiments of the present invention. A number of 300 g Wistar rats were anaesthetized using Ketamine (100 mg/kg) and Xylazine (10 mg/kg). Two 3 cm-long sections 510 of the intestine were removed from each rat and opened along the mesenterial line so that two rectangular pieces of tissue were available from each rat (a single tissue section 510 is shown in FIG. 26). For the experiments described hereinbelow with reference to FIGS. 27-35, the intestinal sections were taken from the upper jejunum, while for the experiment described hereinbelow with reference to FIG. 36, the intestinal sections were taken from the upper jejunum, proximal ileum, and distal ileum. The serosal and muscular layers of the intestinal sections were removed using a microscope cover glass. Each of the intestinal tissue segments was placed on a slide and inserted into diffusion chamber 500.
Diffusion chamber 500 is shaped so as to define a donor cell 520 and an acceptor cell 522, connected by a 28 mm×8 mm window 524. Tissue segment 510 on the slide completely covered window 524. Tissue segment 510 was placed so as to completely cover window 524, thereby separating donor cell 520 and acceptor cell 522. Tissue segment 510 was oriented such that the mucosal side thereof faced donor cell 520, and the serosal side thereof faced acceptor cell 522. Donor cell 520 was filled with 15 ml of Hank's Balanced Salt Solution (HBSS) adjusted to a pH of 7.4 (in mM: 136.9 NaCl, 5.4 KCl, 0.5 MgCl2, 0.4 MgSO4, 4.5 KH2PO4, 0.35 Na2HPO4, 1.0 CaCl2, 4.2 NaHCO3, 5.5 D-Glucose). Acceptor cell 522 was filled with D-Glucose-supplemented Phosphate Buffered Saline (PBS) adjusted to a pH of 7.4 (in mM: 136.9 NaCl, 2.7 KCl, 0.5 MgCl2, 1.5 KH2PO4, 8.1 Na2HPO4, 0.7 CaCl2, 5.5 D-Glucose).
After tissue segment 510 was placed over window 524, the donor cell was divided into two separate compartments 526a and 526b by an electrically-insulating divider 528 positioned to slightly touch tissue segment 510 so that fluid passage between compartments 526a and 526b was slow (if not impossible). (Donor cell 520 was not divided into compartments 526a and 526b in the experiment described hereinbelow with reference to FIG. 33.) The solution was maintained at 37° C. and gassed with 95% O2/5% CO2, supplied via 1 mm ID tubes placed at the bottom of each cell (tubes not shown in FIG. 26).
A single square electrode 530 was placed in each of compartments 526a and 526b of donor cell 520, such that an electrode surface 532 of each electrode was parallel to the surface of tissue segment 510, at a 0.5 mm distance from tissue segment 510 (except for the experiment described hereinbelow with reference to FIG. 32). Electrodes 530 comprised stainless steel (SS316L, 6 mm×6 min) (except for the experiment described hereinbelow with reference to FIG. 34). The distance between the centers of electrode surfaces 532 was 10 mm. After tissue segment 510 was in position over window 524 for 30 minutes, the HBSS in donor cell 520 was replaced with 1 mg/ml octreotide acetate (Sandostatin) containing HBSS.
In each of the experiments described hereinbelow with reference to FIGS. 27-36, beginning upon replacement of the HBSS in donor cell 520 with octreotide, a train of LITV pulses was applied through electrodes 530, and the permeation of octreotide from donor cell 520 to acceptor cell 522 via tissue segment 510 was measured. This train of monophasic rectangular pulses was generated using a Thurlby Thandar Instruments TGP110 pulse generator. The voltage output of the pulse generator was adjusted so that a 3 mA current flowed through the electrodes. An EZ Digital Co. DM330 Digital Multimeter, connected serially to the electrodes, was used to measure current. […]

proximal ileum tissue = test: Octreotide permeation via proximal ileum tissue in diffusion chamber 500 with LITV pulses (FIG. 36); type: in vitro ADME, Wistar rat; conditions: 18 Hz, 3 mA, 1 millisecond vs control, at 7 minutes (FIG. 36)
Method: as §1, with “Each of the intestinal tissue segments was placed on a slide and inserted into diffusion chamber 500.” left out
(§2) In each of the experiments described hereinbelow with reference to FIGS. 27-36, beginning upon replacement of the HBSS in donor cell 520 with octreotide, a train of LITV pulses was applied through electrodes 530, and the permeation of octreotide from donor cell 520 to acceptor cell 522 via tissue segment 510 was measured. […]

distal ileum tissue = test: Octreotide permeation via distal ileum tissue in diffusion chamber 500 with LITV pulses (FIG. 36); type: in vitro ADME, Wistar rat; conditions: 18 Hz, 3 mA, 1 millisecond vs control, at 7 minutes (FIG. 36)
Method: as §1, with “Each of the intestinal tissue segments was placed on a slide and inserted into diffusion chamber 500.” left out
as §2

Structure (SMILES): COC(=O)[C@@H](N)CCCNC(=N)N[N+](=O)[O-] [L-NAME, N^G-Nitro-L-Arginine methyl ester]
effect of NOS inhibition on peptide permeation vs non-NOS-inhibited groups (rat jejunum; 1 mM L-NAME, with and without stimulation): substantially less
proabsorptive effect of NO [1]: significantly reduced

Structure (SMILES): CNC(=N)NCCC[C@H](N)C(=O)O [L-NMA, N^G-methyl-L-arginine]
proabsorptive effect of NO [1]: significantly reduced

Structure (SMILES): N=C(NCCC[C@H](N)C(=O)O)N[N+](=O)[O-] [L-NNA, N^G-nitro-L-arginine]
proabsorptive effect of NO [1]: significantly reduced
electrically-induced NO synthesis and release [2]: almost entirely prevented

penetration of the peptides (rat jejunum): about 0.6 ug/ml
Structure (SMILES): CCNC(=O)[C@@H]1CCCN1C(=O)[C@H](CCCNC(=N)N)NC(=O)[C@H](CC(C)C)NC(=O)[C@@H](CC(C)C)NC(=O)[C@H](Cc1ccc(O)cc1)NC(=O)[C@H](CO)NC(=O)[C@H](Cc1c[nH]c2ccccc12)NC(=O)[C@H](Cc1c[nH]cn1)NC(=O)[C@@H]1CCC(=O)N1 [Leuprolide]

Structure (SMILES): CC(C)N(CCCN)/[N+]([O-])=N/O [NOC5]
absorption of macromolecules (rat intestine): improve absorption of macromolecules

Structure (SMILES): CNCCCN(C)/[N+]([O-])=N/O [NOC7]
absorption of macromolecules (rat intestine): improve absorption of macromolecules

Structure (SMILES): CCNCCN(CC)/[N+]([O-])=N/O [NOC12]
absorption of macromolecules (rat intestine): improve absorption of macromolecules

Structure (SMILES): CC(=O)N[C@H](C(=O)O)C(C)(C)SN=O [SNAP, S-nitroso-acetyl-penicillamine]
transepithelial electrical resistance (mouse ileum): decrease in transepithelial electrical resistance

Structure (SMILES): C[C@@H](O)[C@@H]1NC(=O)[C@H](CCCCN)NC(=O)[C@@H](Cc2c[nH]c3ccccc23)NC(=O)[C@H](Cc2ccccc2)NC(=O)[C@@H](NC(=O)[C@H](N)Cc2ccccc2)CSSC[C@@H](C(=O)N[C@H](CO)[C@@H](C)O)NC1=O [octreotide, octreotide acetate]
permeation of the peptides (rat jejunum; NOS-inhibited (1 mM L-NAME) non-stimulation group, after 45 minutes): about 0.45 ug/ml
permeation of the peptides (rat jejunum; NOS-inhibited (1 mM L-NAME) stimulation group (18 Hz, 1 ms, 5 mA), after 45 minutes): about 0.45 ug/ml
permeation of the peptides (rat jejunum; non-NOS-inhibited electrical stimulation group (18 Hz, 1 ms, 5 mA), after 45 minutes): about 1.45 ug/ml
penetration of the peptides (rat jejunum; non-stimulation, non-NOS-inhibited control group, after 45 minutes): about 0.6 ug/ml
octreotide permeation into acceptor cell [3]: substantially greater increase in octreotide permeation
magnitude of permeation efficiency, effect of electrode distance from jejunal tissue (jejunal tissue; 0.5 mm vs 3 mm, 18 Hz, 3 mA, 1 millisecond, at 15 minutes (FIG. 32)): greater at 0.5 mm than at 3 mm
permeation efficiency, effect of pulse cycle (jejunal tissue; 1 pulse per cycle, 18 Hz, 3 mA): greatest permeation efficiency
enhancement ratio, effect of pulse frequency (jejunal tissue; 18 Hz among 5-60 Hz tested, 1 millisecond, 3 mA, at 30 minutes (FIG. 28)): greatest enhancement ratio
permeation efficiency, effect of cessation of pulse application (jejunal tissue; continuous application vs cessation after 10 minutes, 18 Hz, 3 mA, 1 millisecond (FIG. 35)): substantially greater permeation efficiency
permeation efficiency, effect of electrode insulation (jejunal tissue; electrodes not insulated from each other (without divider 528), 18 Hz, 3 mA, 1 millisecond (FIG. 33)): did not increase permeation efficiency
permeation efficiency, effect of pulse cycle (jejunal tissue; increasing number of pulses per cycle (2, 3), 18 Hz, 3 mA): the permeation efficiency decreased
permeation efficiency in different regions of the intestine (jejunal tissue; jejunal tissue, 18 Hz, 3 mA, 1 millisecond vs control, at 7 minutes (FIG. 36)): greatest effect of pulse application
enhancement ratio, effect of pulse duration (jejunal tissue; pulse duration 1 millisecond among 0.2-3 milliseconds tested, 18 Hz, 3 mA, at 15 minutes (FIG. 30)): greatest enhancement ratio
octreotide permeation (permeation efficiency) (jejunal tissue; pulses 1 millisecond, 18 Hz, 3 mA vs non-stimulated control group (FIG. 27)): substantially enhanced octreotide permeation
octreotide permeation vs control group (jejunal tissue; pulses at 5 Hz, 1 millisecond): did not yield a higher octreotide permeation
octreotide permeation vs control group (jejunal tissue; pulses at 60 Hz, 1 millisecond): did not yield a higher octreotide permeation
permeation efficiency, effect of electrode material (jejunal tissue; silver chloride electrodes, 18 Hz, 3 mA): did not increase permeation efficiency
permeation efficiency, effect of electrode material (jejunal tissue; stainless steel (SS316L) electrodes, 18 Hz, 3 mA): substantially increased permeation efficiency
permeation efficiency, effect of electrode material (jejunal tissue; titanium nitride electrodes, 18 Hz, 3 mA): did not increase permeation efficiency
permeation efficiency in different regions of the intestine (proximal ileum tissue): increased permeation efficiency
permeation efficiency in different regions of the intestine (distal ileum tissue): positive but less pronounced effect
